Measured values published in patent US20250195553A1, “Use of Genipin-1-B-D-Gentiobioside in Preparation of Drug” (Guizhou Bailing Group Pharmaceutical Co., Ltd., priority 2023, published 2025).
Like-named read-outs stand apart in the source and are kept apart here. Marks after values point to notes of the source that are not given here.

Legend:
[1] = test system: Human Coronavirus OC43 (HCoV-OC43); type: in vivo; conditions: 4 days
Human Coronavirus 229E = experiment: Cytokines in lung tissue of mice infected with human coronavirus 229E (ELISA); type: in vivo; conditions: 4 days
Method: Seventy Institute of Cancer Research Mouse (ICR) mice were randomly divided into seven groups based on body weight: a normal control group, a model control group, a chloroquine phosphate control group, and four Genipin-1-β-D-gentiobioside dosage groups (75 mg/ml, 37.5 mg/ml, 18.75 mg/ml, and 9.375 mg/ml), with ten mice in each group. Except for the normal control group, the other mice were lightly anesthetized with isoflurane and infected intranasally with 50 μl of 100 TCID50 coronavirus strain 229E or OC43. The infection was repeated every other day. Nebulization administration began on the same day as the first infection, with a flow rate of 7.5 L/min. The four Genipin-1-β-D-gentiobioside dosage groups were nebulized for 25 minutes each. The chloroquine phosphate control group was administered 0.2 ml/10 g body weight by gavage once daily for four consecutive days. The normal control group and the model control group were nebulized with distilled water for 25 minutes under the same conditions. On the fifth day, the mice were dissected, and the following indicators were measured:
(2) The left lung lobes were used for viral nucleic acid detection, while the right lung lobes were used for the quantification of inflammatory factors: IL-6, IL-10, and TNF-α.
The inhalation administration samples mentioned above were used. The weight of the lung tissue was measured, and an appropriate amount of physiological saline was added to make a 10% tissue homogenate. After homogenizing the tissue using a high-throughput tissue grinder, it was centrifuged at 4° C. and 3000 rpm for 10 minutes using a low-temperature high-speed centrifuge. The supernatant was then aspirated, aliquotted, and stored at −80° C. for future use, avoiding repeated freeze-thaw cycles. For detection, the absorbance at 450 nm was measured using a microplate reader according to the kit instructions.

[2] = test system: Human Respiratory Syncytial Virus (RSV); experiment: Mouse pneumonia model infected with RSV, nebulization: lung index; type: in vivo
Method: […] BALB/c mice, weighing 10±1 g, were randomly divided into four groups: a normal control group, a model control group, a high-dose Genipin-1-β-D-gentiobioside group (75 mg/ml), and a low-dose Genipin-1-β-D-gentiobioside group (37.5 mg/ml). Each group consisted of 10 mice, with an equal number of males and females. Except for the normal control group, all mice were lightly anesthetized with isoflurane and infected with respiratory syncytial virus (RSV) via intranasal administration, with each mouse receiving 35 μl of the virus. On the day of infection, the treatment groups began inhalation administration. Each group received nebulization for 25 minutes once daily for four consecutive days. The normal control group and the model control group received nebulized saline under the same conditions. On the fifth day, after weighing, the mice were sacrificed by cervical dislocation, and their lung tissues were dissected, weighed, and used to calculate the lung index and lung index inhibition rate. The lung tissues were also retained for virus load, pathological examination, and inflammatory factor detection. The results were statistically analyzed using the t-test for intergroup comparisons.

[3] = test system: Mycoplasma Pneumoniae (MP); experiment: Mycoplasma pneumoniae-infected mouse pneumonia model: lung index; type: in vivo, BALB/C mice; set-up: First Batch Inhibition Rate: unit not given here; conditions: 4 days
[4] = test system: Mycoplasma Pneumoniae (MP); experiment: Pathological changes in lung tissue of MP-infected mice (HE staining); type: in vivo, BALB/C mice; set-up: Alveolitis Lesion Degree / Bronchial Damage / Histological Damage Degree: scale not given here
Method: Fifty BALB/C mice, weighing 14±1 g, were randomly divided into five groups: a normal control group, a model control group, an azithromycin control group, a high-dose Genipin-1-β-D-gentiobioside group (75 mg/ml) with 15-minute nebulization, and a low-dose Genipin-1-β-D-gentiobioside group (37.5 mg/ml) with 15-minute nebulization. Each group consisted of 10 mice, with an equal number of males and females. Except for the normal control group, all mice were lightly anesthetized with isoflurane and infected intranasally with Mycoplasma Pneumoniae (50 μl per mouse) for three consecutive days. On the day of infection, each treatment group received nebulized medication once daily for four consecutive days, while the normal control group and model control group received nebulized saline under the same conditions. On the fifth day, the mice were weighed, sacrificed by cervical dislocation, and their lung tissues were dissected, weighed, and used to calculate the lung index and lung index inhibition rate; measure the levels of inflammatory factors in the lung tissue; measure the serum CRP levels; and conduct pathological examinations of the lung tissue. The results were statistically analyzed using the t-test for intergroup comparisons.
2.4 Pathological Changes in Mouse Lung Tissue (HE Staining Method)

[5] = test system: Lipopolysaccharide (LPS)-induced pneumonia model in mice; experiment: LPS-induced pneumonia model in mice, intravenous injection: lung index; type: in vivo, ICR mice; conditions: for Lung Index: 6 h after LPS
Method: Sixty healthy mice, weighing 18˜20 g, half male and half female, were selected and randomly grouped after stratification by weight; they were divided into a normal control group, a model control group, three Genipin-1-β-D-gentiobioside dose groups (150 mg/kg/d, 75 mg/kg/d, 37.5 mg/kg/d), and a positive control drug Sivelestat Sodium 50 mg/kg/d group, with 10 mice in each group, half male and half female. After grouping, each treatment group was administered intravenously at 20 ml/kg once daily for 2 consecutive days, while the normal control group and model control group were injected with physiological saline. One hour after the second dose, except for the normal control group, the other groups were lightly anesthetized with isoflurane, and a 20 mg/ml LPS physiological saline solution was administered intranasally to the mice at 0.05 ml/mouse to induce the pneumonia model. Six hours after infection, the animals were sacrificed, dissected, and their lungs were removed and weighed to calculate the lung index (lung index=lung weight/body weight×100%).

[6] = 37.5 mg/ml nebulization 25 min once daily 4 days
[7] = 75 mg/ml nebulization 25 min once daily 4 days
[8] = High-Dose Group (75 mg/ml nebulization 15 min)
[9] = Low-Dose Group (37.5 mg/ml nebulization 15 min)
[10] = 37.5 mg/kg i.v. once daily 2 days
[11] = 75 mg/kg i.v. once daily 2 days
[12] = 150 mg/kg i.v. once daily 2 days

SMILES: COC(=O)C1=CO[C@@H](O[C@@H]2O[C@H](CO[C@@H]3O[C@H](CO)[C@@H](O)[C@H](O)[C@H]3O)[C@@H](O)[C@H](O)[C@H]2O)[C@@H]2C(CO)=CC[C@H]12 [Genipin-1-β-D-gentiobioside]
- Inhibition Rate (lung index) ([1]; 9.375 mg/ml inhalation 25 min): 49.42%
- Lung Index ([1]; 9.375 mg/ml inhalation 25 min): 0.79 ± 0.09 g lung weight × 100 g/body weight
- Inhibition Rate (lung index) ([1]; 18.75 mg/ml inhalation 25 min): 75.73%
- Lung Index ([1]; 18.75 mg/ml inhalation 25 min): 0.76 ± 0.04 g lung weight × 100 g/body weight
- Inhibition Rate (lung index) ([1]; 37.5 mg/ml inhalation 25 min): 90.30%
- Lung Index ([1]; 37.5 mg/ml inhalation 25 min): 0.74 ± 0.08 g lung weight × 100 g/body weight
- Inhibition Rate (lung index) ([1]; 75 mg/ml inhalation 25 min): 102.88%
- Lung Index ([1]; 75 mg/ml inhalation 25 min): 0.72 ± 0.05 g lung weight × 100 g/body weight
- Cytokine Levels in Lung Tissue IL-6 (Human Coronavirus 229E; 9.375 mg/ml inhalation): 98.70 ± 4.56 pg/mL
- Cytokine Levels in Lung Tissue IL-10 (Human Coronavirus 229E; 9.375 mg/ml inhalation): 331.34 ± 28.00 pg/mL
- Cytokine Levels in Lung Tissue TNF-α (Human Coronavirus 229E; 9.375 mg/ml inhalation): 511.16 ± 80.14 pg/mL
- Cytokine Levels in Lung Tissue IL-6 (Human Coronavirus 229E; 18.75 mg/ml inhalation): 99.51 ± 5.24 pg/mL
- Cytokine Levels in Lung Tissue IL-10 (Human Coronavirus 229E; 18.75 mg/ml inhalation): 330.61 ± 25.07 pg/mL
- Cytokine Levels in Lung Tissue TNF-α (Human Coronavirus 229E; 18.75 mg/ml inhalation): 503.00 ± 56.50 pg/mL
- Cytokine Levels in Lung Tissue IL-6 (Human Coronavirus 229E; 37.5 mg/ml inhalation): 98.23 ± 3.42 pg/mL
- Cytokine Levels in Lung Tissue IL-10 (Human Coronavirus 229E; 37.5 mg/ml inhalation): 334.12 ± 25.59 pg/mL
- Cytokine Levels in Lung Tissue TNF-α (Human Coronavirus 229E; 37.5 mg/ml inhalation): 513.28 ± 58.74 pg/mL
- Cytokine Levels in Lung Tissue IL-6 (Human Coronavirus 229E; 75 mg/ml inhalation): 98.31 ± 2.78 pg/mL
- Cytokine Levels in Lung Tissue IL-10 (Human Coronavirus 229E; 75 mg/ml inhalation): 341.12 ± 29.07 pg/mL
- Cytokine Levels in Lung Tissue TNF-α (Human Coronavirus 229E; 75 mg/ml inhalation): 511.81 ± 51.82 pg/mL
- Inhibition Rate (lung index) [2, 6]: 68.79%
- Lung Index [2, 6]: 0.70 ± 0.09 Lung weight/100 g body weight
- Inhibition Rate (lung index) [2, 7]: 88.35%
- Lung Index [2, 7]: 0.67 ± 014 Lung weight/100 g body weight
- First Batch Inhibition Rate ([3]; 37.5 mg/ml inhalation 15 min): 73.01
- First Batch Lung Index ([3]; 37.5 mg/ml inhalation 15 min): 0.76 ± 0.09
- Second Batch Inhibition Rate ([3]; 37.5 mg/ml inhalation 15 min): 56.34
- Second Batch Lung Index ([3]; 37.5 mg/ml inhalation 15 min): 0.68 ± 0.08
- First Batch Inhibition Rate ([3]; 75 mg/ml inhalation 15 min): 93.06
- First Batch Lung Index ([3]; 75 mg/ml inhalation 15 min): 0.72 ± 0.05
- Second Batch Inhibition Rate ([3]; 75 mg/ml inhalation 15 min): 64.09
- Second Batch Lung Index ([3]; 75 mg/ml inhalation 15 min): 0.67 ± 0.07
- Alveolitis Lesion Degree [4, 8]: 30.40*
- Bronchial Damage [4, 8]: 26.60*
- Histological Damage Degree [4, 8]: 1.50 ± 0.55
- Interstitial Inflammatory Cell Infiltration [4, 8]: 30.60*
- Pathological changes of lung tissue compared with the model group ([4]; High-Dose Group, HE staining): significantly reduced
- Alveolitis Lesion Degree [4, 9]: 39.35
- Bronchial Damage [4, 9]: 52.35
- Histological Damage Degree [4, 9]: 1.90 ± 0.39
- Pathological changes (alveolar wall thickening, inflammatory cell infiltration) compared with the model group ([4]; Low-Dose Group, HE staining): significantly reduced
- Inhibition Rate (lung index) [5, 10]: 48.85
- Lung Index [5, 10]: 0.91 ± 0.09 g/100 g body weight
- Inhibition Rate (lung index) [5, 11]: 94.65
- Lung Index [5, 11]: 0.85 ± 0.14 g/100 g body weight
- Inhibition Rate (lung index) [5, 12]: 77.10
- Lung Index [5, 12]: 0.87 ± 0.01 g/100 g body weight
